Results taken from US9468627B2, “Slow-release formulations of 5-hydroxytryptophan as an adjunct to pro-serotonergic therapies” (Duke University, priority 2010, dated 2016).
“Also recorded” adds a separate entry of the source.

Assays:
[1] = system: extracellular serotonin (5-HTExt); experiment: 5-HT microdialysis (5-HTExt); format: in vivo, mice
Procedure: Mice were anesthetized by ketamine/xylazine (100 and 10 mg kg^−1, respectively, in saline, i.p) and a guide cannula (CMA7, CMA Microdialysis, Chelmsford, Mass., USA) was stereotactically implanted into the frontal cortex (AP: 2.3 mm, ML: 0.3 mm, DV: 0.7 mm), hippocampus (AP: −3.3 mm, ML: 3.0 mm, DV: 1.5 mm) or lateral ventricle (AP: 0.3 mm; ML: 0.9 mm; DV: 2.0 mm) according to the atlas by Franklin and Paxinos (see, e.g., Franklin, K. and Paxinos, G. The Mouse Brain in Stereotaxic Coordinates. Academic Press: San Diego, 1997) and fixed in place with two anchor screws (CMA) and carboxylate dental cement (CMA). Operated mice were singly housed, treated with antibiotics (1.2 mg sulfamethoxazole ml^−1 and 0.24 mg trimethoprim ml^−1) in the drinking water and allowed to recover 48-96 h post-surgery.
The microdialysis probe was inserted into the guide cannula approximately 16 h before the start of sample collection to allow for the stabilization of 5-HTExt levels. […] Dialysates were analyzed off-line by high-performance liquid chromatography-electrochemical detection (HPLC-EC) for 5-HT, 5-HIAA, 3,4-dihydroxyphenylacetic acid and homovanillic acid, or by the SymDAQ HPLC-tandem-mass spectrometry technology for simultaneous determination of monoamines and amino acids.
METHODS: 5-HT Microdialysis 5-HTP SR. […] 5-HTExt in dialysates was determined by HPLC-EC. […]

[2] = Side-effect and toxicity observation (body weight, drinking, diarrhea, 5-HT syndrome-like behaviors)
Procedure: Tph2 R439H mice (˜25 g) were treated for >3 wks with a saturating dose of FLX (155 mg/L drinking water, ˜20 mg/kg/day). Thereafter Alzet 2001 minipumps (1 μl delivered/hr) containing a 5-HTP solution (100 mg/ml, ˜100 mg/kg/day) or only vehicle was implanted using isoflurane anesthesia, allowing for swift awakening, and the mice monitored for signs of 5-HT syndrome hourly for 8 hrs and at 24 hrs. Splaying (0=absent, 1=present, 2=severe), head twitch (#/min) and signs of hyperventilation (0=absent, 1=present, 2=severe) was scored. Body weights—a general index of toxicity—were followed for 2 days prior to and 5 days after pump implantation.
METHODS: Mice on >2 w FLX (155 mg/L water, ˜20 mg/kg/d) were implanted with Alzet 2001 minipumps with vehicle (50% DMSO) or 100 mg/ml 5-HTP yielding a hourly (daily) dose of ˜4.2(100 mg)/kg for a ˜25 g mouse. Side-effect parameters were assessed between 30 min and 8 h following pump implantation under brief isoflurane anesthesia (day 1) and then daily (day 2-4). […] Diarrhea: Mice where placed individually in a cage with filter paper and the diarrhea level scored, 0-3. Tremor and splaying: Scored in home cage from 5 min videos. Temperature: Recorded by digital rectal temperature probe in lightly restrained mice. […] Statistics: Genotypes were analyses separately, with 2way RM-ANOVA or t-test as appropriate, and in the former case followed by Bonferroni post-hoc test.
Side-effects were assessed after the AM dose, day 1-4. Diarrhea: Mice were placed individually in a cage with filter paper and the diarrhea level scored, 0-3, 0-15 min after injection. Tremor, splaying and head-twitch: Scored in home cage from 5 min videos, 25-30 min after injection. Temperature: Recorded by digital rectal temperature probe in lightly restrained mice 30 min after injection. […] Statistics: Genotypes were analyzed separately, with 2way RM-ANOVA or t-test where appropriate, and in the former case followed by Bonferroni post-hoc test.
METHODS: 5-HTP (2 mg/L) was dissolved in (1 mg/L) saccharin-H2O, administered in blackened bottles and changed twice weekly. […] Body weights and drinking per cage was followed throughout and 5-HTP consumed estimated here from.

[3] = HPLC pilot stability of 5-HTP in water; format: physicochemical; conditions: H2O at RT, HPLC pilot experiments
[4] = immediate-release oral 5-HTP; cited from earlier work
[5] = Shindo et al. 1977; cited from earlier work
[6] = cited from earlier work

Question: Which “5-HTExt response to chronic FLX” value ([1]; wild-type mice, FLX ≈18 mg/kg/day) does the source give for `CNCCC(Oc1ccc(C(F)(F)F)cc1)c1ccccc1` (stereo not shown) [FLX, fluoxetine] here?
Answer: The value was “robust increase”.

Question: And the “effect of FLX on 5-HTP-induced diarrhea (peri-rectal fecal smearing)” value ([2]; FLX ≈18 mg/kg/day, 5-HTP bolus 80 mg/kg i.p., not rigorously tested)?
Answer: The value was “seems to decrease diarrhea induced by 5-HTP; also recorded: appeared to lessen 5-HTP-induced diarrhea”.

Question: With `CCCN(CCC)C1CCc2cccc(O)c2C1` (stereo not shown) [8-OH-DPAT] as the compound, how does the “decrease of 5-HTExt” value ([1]; 8-OH-DPAT 1 mg/kg i.p.) read?
Answer: Its value is “approximately 50%”.

Question: With `N[C@@H](Cc1c[nH]c2ccc(O)cc12)C(=O)O` [5-HTP, 5-hydroxytryptophan] as the compound, how does the “stability in H2O” value [3] read?
Answer: Its value is “stable for weeks”.

Question: What about the T1/2 [4] of the same compound?
Answer: The T1/2 was 2 to 3 h.

Question: And the Tmax [4]?
Answer: The Tmax was 1 to 2 h.

Question: And the “first-pass metabolism in the intestine” value [5]?
Answer: The value was roughly 50%.

Question: What about the “antidepressant effect (HAMD) at endpoint” value ([6]; Alino et al.: 30 inpatients, nialamid 300 mg + 5-HTP 300 mg, two weeks, double-blind) of the same compound?
Answer: The value was “significantly better than nialamide alone”.

Question: And the “antidepressant effect (HAMD) versus clomipramine + placebo” value ([6]; Nardini et al.: 26 inpatients, clomipramine 50 mg + 5-HTP 300 mg, four weeks, double-blind)?
Answer: The value was 5-HTP enhanced clomipramines effect.

Question: And the “patients going into remission” value ([6]; van Hiele: 99 chronic treatment resistant out-patients, mostly on TCAs, add-on 5-HTP ~200 mg + carbidopa, open label)?
Answer: Its value is “Forty-three”.

Question: And the side effects ([6]; van Hiele: add-on 5-HTP ~200 mg + carbidopa, severity greatly decreased with enteric coated capsules)?
Answer: The side effects was “nausea, vomiting and diarrhea”.

Question: What about the patients improved ([6]; van Praag: 7 chronic treatment resistant out-patients, clomipramine 50 mg + 5-HTP ~2-400 mg + PDI MK 486) of the same compound?
Answer: Its patients improved is “Four”.

Question: What about the drinking ([2]; 5-HTP 2 mg/ml and 4 mg/ml in drinking water) of the same compound?
Answer: The drinking was “Decreased drinking”.

Question: And the body weight ([2]; 5-HTP 4 mg/ml in drinking water)?
Answer: Its body weight is “Body weight decrease”.

Question: What about the 5-HT syndrome-like behavior ([2]; acute 5-HTP bolus 80 mg/kg i.p., add-on to existing FLX ≈18 mg/kg/day) of the same compound?
Answer: Its 5-HT syndrome-like behavior is “resulted in 5-HT syndrome-like behavior; also recorded: causes 5-HT syndrome; also recorded: Serotonin syndrome-like behavior was observed”.

Question: What about the “diarrhea, malaise, gastrointestinal side effects” value ([2]; bolus injection 5-HTP 120 mg/kg i.p.) of the same compound?
Answer: Its value is “caused gastrointestinal side effects; also recorded: caused diarrhea and obvious malaise”.

Question: And the “diarrhea, malaise, gastrointestinal side effects” value ([2]; continuous 5-HTP in drinking water 4 mg/ml)?
Answer: The value was “No diarrhea and no obvious malaise; also recorded: did not result in gastrointestinal side effects”.

Question: What about the drinking ([2]; higher 5-HTP concentrations in drinking water, in pilots) of the same compound?
Answer: Its drinking is “inhibited drinking”.

Question: And the “toxicity (weights, head twitches, diarrhea)” value ([2]; oral 5-HTP ≈200 mg/kg/day, no carbidopa, add-on to existing fluoxetine ≈18 mg/kg/day)?
Answer: The value was “No indication of toxicity; also recorded: not toxic and does not result in side effects”.
